Data: patent US11319315B2, “Cyclohexyl acid triazole azoles as LPA antagonists” (BRISTOL-MYERS SQUIBB COMPANY, priority 2017, dated 2022)

molecular target: T1, human LPA1 (Homo sapiens, UniProt Q92633); test: LPA1 functional antagonist assay (LPA-induced calcium flux in CHO cells overexpressing human LPA1); type: cell-based; settings: inhibition of calcium flux induced by 10 nM LPA, CHO cells overexpressing human LPA1; read-out: hLPA1 IC50
T1 construct: expressed in transfected cells; host or cells: Chinese hamster ovary (CHO) cells
T1 sequence (Q92633 whole entry): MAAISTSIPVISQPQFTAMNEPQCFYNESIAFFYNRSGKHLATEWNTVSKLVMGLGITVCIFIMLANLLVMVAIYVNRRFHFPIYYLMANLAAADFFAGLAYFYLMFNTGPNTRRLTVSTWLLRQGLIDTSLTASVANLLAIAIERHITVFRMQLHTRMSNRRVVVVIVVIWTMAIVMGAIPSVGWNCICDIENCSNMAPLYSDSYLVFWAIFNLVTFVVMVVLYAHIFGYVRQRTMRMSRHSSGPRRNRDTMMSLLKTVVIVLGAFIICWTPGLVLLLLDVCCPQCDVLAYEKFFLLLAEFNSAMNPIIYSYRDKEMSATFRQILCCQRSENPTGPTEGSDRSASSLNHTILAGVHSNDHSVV
Outline: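 Calcium flux was triggered by 10 nM LPA after 20 min room-temperature compound pre-incubation (final 0.08 nM to 5 μM, 0.5% DMSO) in human LPA1-overexpressing CHO cells carrying calcium dye. Buffer: HBSS with Ca/Mg, 20 mM HEPES, 0.1% fatty-acid-free BSA; IC50s from 4-parameter logistic fits.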

Compound | IC50
Cc1nc(-c2nnn(C)c2CNc2noc(C3(C)CC3)n2)ccc1O[C@H]1CCC[C@H](C(=O)O)C1 [Example 154] | 0.441 µM
CC[C@@H](OC)c1nc(NCc2c(-c3ccc(O[C@H]4CCC[C@H](C(=O)O)C4)c(C)n3)nnn2C)no1 (single isomer, unassigned) [Example 215] | 0.154 µM
Cn1nnc(-c2ccc(O[C@H]3CCC[C@H](C(=O)O)C3)cn2)c1CNc1noc(CCCC(F)(F)F)n1 [Example 292, (1S,3S)-3-((6-(1-methyl-5-(((5-(4,4,4-trifluorobutyl)-1,2,4-oxadi-azol-3-yl)amino)methyl)-1H-1,2,3-triazol-4-yl)pyridin-3-yl)oxy)cyclohexane-1-carboxylic acid] | 0.0487 µM
CCc1nnn(Cc2c(-c3ccc(O[C@H]4CCC[C@H](C(=O)O)C4)c(C)n3)nnn2C)n1 [Example 318, (1S,3S)-3-((6-(5-((5-ethyl-2H-tetrazol-2-yl)methyl)-1-methyl-1H-1,2,3-triazol-4-yl)-2-methylpyridin-3-yl)oxy)cyclo-hexane-1-carboxylic acid] | 0.414 µM
Cc1nc(-c2nnn(C)c2Cn2nnc(OCC(C)C)n2)ccc1O[C@H]1CCC[C@H](C(=O)O)C1 [Example 344, (1S,3S)-3-{[2-methyl-6-(1-methyl-5-{[5-(2-methylpropoxy)-2H-1,2,3,4-tetrazol-2-yl]methyl}-1H-1,2,3-triazol-4-yl)pyridin-3-yl]oxy}cyclohexane-1-carboxylic acid] | 0.025 µM
COc1cccc(Cc2nnnn2Cc2c(-c3ccc(O[C@H]4CCC[C@H](C(=O)O)C4)c(C)n3)nnn2C)c1 [Example 313, (1S,3S)-3-({6-[5-({5-[(3-methoxy-phenyl)methyl]-1H-1,2,3,4-tetrazol-1-yl}methyl)-1-methyl-1H-1,2,3-triazol-4-yl]-2-methylpyridin-3-yl}oxy)cyclohexane-1-carboxylic acid] | 0.277 µM
Cc1nc(-c2nnn(C)c2CNc2noc(C3CC3)n2)ccc1O[C@H]1CCC[C@H](C(=O)O)C1 [Example 173] | 0.266 µM
Cc1nc(-c2nnn(C)c2Cn2nncc2C2CC2)ccc1O[C@H]1CCC[C@H](C(=O)O)C1 [Example 268, (1S,3S)-3-((6-(5-((5-cyclopropyl-1H-1,2,3-triazol-1-yl)methyl)-1-methyl-1H-1,2,3-triazol-4-yl)-2-methyl-pyridin-3-yl)oxy)cyclohexane-1-carboxylic acid] | 0.301 µM
Cc1nc(-c2nnn(C)c2CNc2ncn(C(C)C)n2)ccc1O[C@H]1CCC[C@H](C(=O)O)C1 [Example 126] | 1.49 µM
Cc1nc(-c2nnn(C)c2Cn2nncc2CC(C)C)ccc1O[C@H]1CCC[C@H](C(=O)O)C1 [Example 261, (1S,3S)-3-((6-(5-((5-isobutyl-1H-1,2,3-triazol-1-yl)methyl)-1-methyl-1H-1,2,3-triazol-4-yl)-2-methyl-pyridin-3-yl)oxy)cyclohexane-1-carboxylic acid] | 0.115 µM

same assay, conditions: read-out: hLPA1 IC50

Compound | IC50
Cc1nc(-c2nnn(C)c2CNc2nnn(CC(C)C)n2)ccc1O[C@H]1CCC[C@H](C(=O)O)C1 [Example 388, (1S,3S)-3-((6-(5-(((2-isobutyl-2H-tetrazol-5-yl)amino)methyl)-1-methyl-1H-1,2,3-triazol-4-yl)-2-methylpyridin-3-yl)oxy)cyclo-hexane-1-carboxylic acid] | 0.043 µM
Cc1nc(-c2nnn(C)c2Cc2nnnn2Cc2ccccc2)ccc1O[C@H]1CCC[C@H](C(=O)O)C1 [Example 369, (1S,3S)-3-((6-(5-((1-benzyl-1H-tetrazol-5-yl)methyl)-1-methyl-1H-1,2,3-triazol-4-yl)-2-methylpyridin-3-yl)oxy)cyclohexane-1-carboxylic acid] | 0.123 µM
CCCCCc1cn(Cc2c(-c3ccc(O[C@H]4CCC[C@H](C(=O)O)C4)c(CC)n3)nnn2C)nn1 [Example 375, (1S,3S)-3-((2-ethyl-6-(1-methyl-5-((4-pentyl-1H-1,2,3-triazol-1-yl)methyl)-1H-1,2,3-triazol-4-yl)pyridin-3-yl)oxy)cyclohexane-1-carboxylic acid] | 0.585 µM
